According to patent US11654097B2, “Peptide having activities of skin whitening and uses thereof” (CAREGEN CO., LTD., priority 2019, dated 2023):

How the values were obtained:
[1] = system: mouse melanoma cell B16F10; assay: Inhibitory effect on melanin production in α-MSH-stimulated B16F10 cells; assay type: cell-based; settings: B16F10, 200 ng/ml α-MSH, peptide 10, 50, 100 or 200 μM, 72 hours, absorbance at 450 nm
Protocol: A mouse melanoma cell B16F10 was seeded in a 6-well plate at a density of 5×10^4 cells/well, followed by incubation for 16 hours. Thereafter, the culture medium was replaced by a medium supplemented with 2% serum, and then 200 ng/ml of α-melanocyte-stimulating hormones (α-MSH) was added thereto to stimulate melanin production, together with each peptide of an amino acid sequence of SEQ ID NO: 1, 2, or 3 at a concentration of 10 μM, 50 μM, 100 μM, or 200 μM, respectively, followed by incubation for 72 hours. Thereafter, the incubated cells were dissolved in 1 N NaOH, and absorbance at 450 nm was measured. Moreover, an untreated group (Con) was used as a control, and only an α-MSH-treated group as a negative control and a known skin-whitening agent Arbutin (200 μM, 500 μM) and an α-MSH-treated group as a positive control were used.

[2] = molecular target: T1, tyrosinase (Mus musculus, UniProt P11344); assay: Inhibitory effect on tyrosinase activity in lysate of treated B16F10 cells (L-DOPA); assay type: cell-based; settings: B16F10, 200 ng/ml α-MSH, peptide 1-160 μM, 72 hours, absorbance at 475 nm
T1 construct: The cells were lysed by adding a 0.1 M sodium phosphate buffer (pH 6.8, lysis buffer) containing 1% triton X-100; endogenous in cells; host or cells: B16F10 mouse melanoma cells stimulated with alpha-MSH
T1 sequence (P11344 19-533): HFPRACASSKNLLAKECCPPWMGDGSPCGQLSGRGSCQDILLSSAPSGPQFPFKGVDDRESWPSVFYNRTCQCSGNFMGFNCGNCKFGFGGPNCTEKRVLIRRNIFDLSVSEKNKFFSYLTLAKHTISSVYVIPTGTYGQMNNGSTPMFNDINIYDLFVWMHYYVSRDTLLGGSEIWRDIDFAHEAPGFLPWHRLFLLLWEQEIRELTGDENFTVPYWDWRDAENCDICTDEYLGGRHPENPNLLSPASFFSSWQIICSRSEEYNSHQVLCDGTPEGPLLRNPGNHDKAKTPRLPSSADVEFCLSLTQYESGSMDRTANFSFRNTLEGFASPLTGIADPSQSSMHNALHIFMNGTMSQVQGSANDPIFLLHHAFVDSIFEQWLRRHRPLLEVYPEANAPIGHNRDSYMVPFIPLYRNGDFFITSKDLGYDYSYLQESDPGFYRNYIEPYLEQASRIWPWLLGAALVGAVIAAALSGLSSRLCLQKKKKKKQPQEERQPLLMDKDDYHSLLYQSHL
Protocol: A mouse melanoma cell B16F10 was seeded in a 6-well plate at a density of 5×10^4 cells/well, followed by incubation for 16 hours. Thereafter, the culture medium was replaced by a medium supplemented with 2% serum, and then 200 ng/ml of α-MSH was added thereto, together with each peptide of an amino acid sequence of SEQ ID NO: 1, 2, or 3 at a concentration of 1 μM, 10 μM, 20 μM, 40 μM, 60 μM, 80 μM or 160 μM, respectively, followed by incubation for 72 hours. The 6-well plate was placed on ice, and then washed with cold PBS. The cells were lysed by adding a 0.1 M sodium phosphate buffer (pH 6.8, lysis buffer) containing 1% triton X-100. Thereafter, the cells in the well plate were scraped, and collected in a 1.5 ml tube, followed by vortexing. Centrifugation was carried out at 15,000 rpm for 10 minutes to obtain a supernatant. Thereafter, proteins in the supernatant was quantified to adjust the protein content at a predetermined amount. A buffer was added thereto, and total 90 μl of the sample was dispensed in a 96-well plate.
Thereafter, 20 μL of 10 mM L-DOPA was added to each sample, and incubated at 37° C. for 1 hour. Then, absorbance at 475 nm was measured. In addition, an untreated group (Con) was used as a control, and only α-MSH-treated group as a negative control and Arbutin (200 μM or 500 μM) and α-MSH-treated group as a positive control were used.

[3] = system: MITF; assay: Expression of melanin production-associated gene (RT-PCR) in B16F10 cells; assay type: cell-based, mouse; settings: B16F10, 200 ng/ml α-MSH, peptide 10-200 μM, 72 hours
Protocol: (§1) A mouse melanoma cell B16F10 was seeded in a 6-well plate at a density of 5×10^4 cells/well, followed by incubation for 16 hours. Thereafter, the culture medium was replaced by a medium supplemented with 2% serum, and then 200 ng/ml of α-MSH was added thereto, together with each peptide of an amino acid sequence of SEQ ID NO: 1, 2, or 3 at a concentration of 10 μM, 50 μM, 100 μM, or 200 μM, respectively, followed by incubation for 72 hours. mRNAs were extracted from the cultured cells, and the extracted mRNAs were reverse transcribed using a cDNA synthesis kit & PCR pre-mix (Intron, Korea), thereby synthesizing cDNA, respectively. Thereafter, a polymerase chain reaction (PCR) was carried out using each cDNA and Rab27a, Melanophilin (Mlph), myosin VA, MITF, Tyrosinase, and TRP1 primers. Moreover, a control, a negative control, and a positive control were used in the same manner as in Example 2, and nucleotide sequences of the primers used herein are the same as in Table 3 below.

[4] = system: Mlph; assay: as above; assay type: cell-based, mouse; settings: B16F10, 200 ng/ml α-MSH, peptide 10-200 μM, 72 hours
Protocol: as §1

[5] = system: tyrosinase; assay: as above; assay type: cell-based, mouse; settings: B16F10, 200 ng/ml α-MSH, peptide 10-200 μM, 72 hours
Protocol: as §1

[6] = system: MITF; assay: Expression of melanin production-associated protein (Western blotting) in B16F10 cells; assay type: cell-based, mouse; settings: B16F10, 200 ng/ml α-MSH, peptide 10-200 μM, 72 hours
Protocol: (§2) A mouse melanoma cell B16F10 was seeded in a 6-well plate at a density of 5×10^4 cells/well, followed by incubation for 16 hours. Thereafter, the culture medium was replaced by a medium supplemented with 2% serum, and then 200 ng/ml of α-MSH was added thereto, together with each peptide of an amino acid sequence of SEQ ID NO: 1, 2, or 3 at a concentration of 10 μM, 50 μM, 100 μM, or 200 μM, respectively, followed by incubation for 72 hours. Thereafter, the cultured cells were lysed, and then subjected to Western blotting using antibodies (santacruz biotechnology, USA) against Mlph, Rab27a, Tyrosinase, MITF, and TRP-1. In addition, a control, a negative control, and a positive control were used in the same manner as in Example 2.

[7] = system: TRP-1; assay: as above; assay type: cell-based, mouse; settings: B16F10, 200 ng/ml α-MSH, peptide 10-200 μM, 72 hours
Protocol: as §2

[8] = system: tyrosinase; assay: as above; assay type: cell-based, mouse; settings: B16F10, 200 ng/ml α-MSH, peptide 10-200 μM, 72 hours
Protocol: as §2

[9] = system: Rab27a; assay: Expression of melanin production-associated gene (RT-PCR) in B16F10 cells; assay type: cell-based, mouse; settings: B16F10, 200 ng/ml α-MSH, peptide 10-200 μM, 72 hours
Protocol: as §1

[10] = system: TRP1; assay: as above; assay type: cell-based, mouse; settings: B16F10, 200 ng/ml α-MSH, peptide 10-200 μM, 72 hours
Protocol: as §1

[11] = system: myosin VA; assay: as above; assay type: cell-based, mouse; settings: B16F10, 200 ng/ml α-MSH, peptide 10-200 μM, 72 hours
Protocol: as §1

[12] = system: Mlph; assay: Expression of melanin production-associated protein (Western blotting) in B16F10 cells; assay type: cell-based, mouse; settings: B16F10, 200 ng/ml α-MSH, peptide 10-200 μM, 72 hours
Protocol: as §2

[13] = system: Rab27a; assay: as above; assay type: cell-based, mouse; settings: B16F10, 200 ng/ml α-MSH, peptide 10-200 μM, 72 hours
Protocol: as §2

Substance | melanin production [1] | tyrosinase activity [2] | expression of MITF gene [3] | expression of Mlph gene [4] | expression of tyrosinase gene [5] | expression of MITF protein [6] | expression of TRP-1 protein [7] | expression of Tyrosinase protein [8] | expression of Rab27a gene [9] | expression of TRP1 gene [10] | expression of myosin VA gene [11] | expression of Mlph protein [12] | expression of Rab27a protein [13]
FHFIPNW [SEQ ID NO: 2] | reduced in a concentration-dependent manner | inhibited in a concentration-dependent manner | inhibited | inhibited | inhibited | inhibited | inhibited | inhibited |  |  |  |  | 
LRKRKRRFWVL [SEQ ID NO: 1] | reduced in a concentration-dependent manner | inhibited in a concentration-dependent manner | inhibited |  | inhibited | inhibited |  | inhibited | inhibited | inhibited | inhibited | inhibited | inhibited
WPFLRP [SEQ ID NO: 3] | reduced in a concentration-dependent manner | inhibited in a concentration-dependent manner | inhibited | inhibited | inhibited | inhibited |  | inhibited | inhibited | inhibited | inhibited | inhibited | inhibited
